Experimental data published in patent publication US11873298B2, “Compounds and uses thereof” (JANSSEN PHARMACEUTICA NV, priority 2017, dated 2024).
“And” between values parts separate entries of the source, which are not always exact repeats. Equal entries are not always repeated.

Key:
Format in all cases: cell-based
SCD5 = biological target: T1, SCD5 (Homo sapiens, UniProt Q86SK9); experiment: Growth inhibition of humanized yeast strain expressing SCD5 as sole desaturase; details: for IC50 / SCD5 % Max Inhibition: humanized yeast strain expressing SCD5
T1 construct: host or cells: S. cerevisiae ole1Δ strain (W303 pdr1Δ pdr3Δ background), plasmid pRS316 with TDH3 promoter and CYC1 terminator
T1 sequence (Q86SK9 1-330): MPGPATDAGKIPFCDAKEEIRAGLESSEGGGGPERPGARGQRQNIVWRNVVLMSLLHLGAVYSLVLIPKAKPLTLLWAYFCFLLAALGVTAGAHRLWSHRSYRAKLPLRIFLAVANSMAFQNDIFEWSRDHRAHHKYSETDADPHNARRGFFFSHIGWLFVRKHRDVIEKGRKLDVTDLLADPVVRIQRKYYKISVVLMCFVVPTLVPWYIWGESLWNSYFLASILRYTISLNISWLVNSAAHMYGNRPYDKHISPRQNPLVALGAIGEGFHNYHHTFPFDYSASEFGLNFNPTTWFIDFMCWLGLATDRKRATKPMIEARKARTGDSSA
Outline: (§1)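 ole1Δ yeast (W303 pdr1Δ pdr3Δ background) carrying plasmid-borne Ole1, SCD1 or SCD5, grown in uracil-free media; cultures pre-grown in raffinose, seeded at 2× density 0.02 in galactose media with compound. Growth read as OD600 after 24 h at 30° C. for Ole1, 40 h for SCD1/SCD5.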

SCD1 = biological target: T2, SCD1 (Homo sapiens, UniProt O00767); experiment: Growth inhibition of humanized yeast strain expressing SCD1 as sole desaturase; details: humanized yeast strain expressing SCD1
T2 construct: host or cells: S. cerevisiae ole1Δ strain (W303 pdr1Δ pdr3Δ background), plasmid pRS316 with TDH3 promoter and CYC1 terminator
T2 sequence (O00767 1-359): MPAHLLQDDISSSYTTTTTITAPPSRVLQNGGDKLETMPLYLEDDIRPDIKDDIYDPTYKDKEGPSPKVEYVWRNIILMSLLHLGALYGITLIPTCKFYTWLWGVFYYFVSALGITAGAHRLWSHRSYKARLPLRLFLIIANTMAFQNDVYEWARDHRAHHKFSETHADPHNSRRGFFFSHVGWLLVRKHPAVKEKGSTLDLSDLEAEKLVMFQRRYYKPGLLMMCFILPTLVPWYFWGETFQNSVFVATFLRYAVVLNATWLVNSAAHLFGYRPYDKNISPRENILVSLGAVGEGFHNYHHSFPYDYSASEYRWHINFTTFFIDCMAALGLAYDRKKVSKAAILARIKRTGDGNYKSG
Outline: as §1

Ole1 = biological target: T3, Ole1 (Saccharomyces cerevisiae, UniProt P21147); experiment: Growth inhibition of yeast strain expressing Ole1 as sole desaturase; details: for IC50 / OLE1 % Max Inhibition: yeast strain expressing Ole1 as sole desaturase
T3 construct: expressed in transfected cells; host or cells: S. cerevisiae ole1Δ strain (W303 pdr1Δ pdr3Δ background), plasmid pRS316 with TDH3 promoter and CYC1 terminator
T3 sequence (P21147 1-510): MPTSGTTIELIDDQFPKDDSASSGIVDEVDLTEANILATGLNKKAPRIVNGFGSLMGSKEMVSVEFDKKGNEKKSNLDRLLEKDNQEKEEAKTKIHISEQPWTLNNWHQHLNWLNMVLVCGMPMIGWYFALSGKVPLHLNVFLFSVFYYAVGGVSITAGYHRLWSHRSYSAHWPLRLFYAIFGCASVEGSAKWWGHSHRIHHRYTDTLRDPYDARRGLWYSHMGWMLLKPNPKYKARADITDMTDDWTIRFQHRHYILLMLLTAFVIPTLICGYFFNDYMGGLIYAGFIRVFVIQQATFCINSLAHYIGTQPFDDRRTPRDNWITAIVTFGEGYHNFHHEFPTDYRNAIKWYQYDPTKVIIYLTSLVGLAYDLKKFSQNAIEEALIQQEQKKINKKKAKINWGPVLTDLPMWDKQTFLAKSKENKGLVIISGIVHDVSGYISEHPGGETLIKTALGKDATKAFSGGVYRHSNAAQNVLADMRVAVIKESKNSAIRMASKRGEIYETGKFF
Procedure: Strain oleΔ (yeast ole1 deletion mutant) was constructed by deleting OLE1 with NAT-MX6 in BY4741, amplifying the deletion cassette from the genomic DNA of the resulting strain with primers flanking the ORF by 1000 bp upstream and downstream, transforming the resulting deletion cassette into W303 pdr1Δ pdr3Δ, and plating transformants on YPD media containing G418 (200 μg/mL) and nourseothricin ([…]) with 0.01% TWEEN®-20 and 0.5 mM oleic and palmitoleic acids.
The coding sequence of yeast OLE1 was also cloned into this plasmid). These clones were then transformed into the ole1Δ strain and plated on CSM-Ura media (CSM lacking uracil) with 2% glucose (w/v) and independent colonies were isolated and amplified.
All compound profiling experiments were performed using the same basic protocol. Different genetic backgrounds (e.g., gene deletions) or conditions (e.g., addition of oleic and palmitoleic acid) were replaced as indicated below.
Yeast were cultured using standard techniques in complete synthetic media (CSM) and yeast nitrogen base supplemented with 2% (w/v) carbon source (glucose, raffinose, or galactose) to regulate the expression of the toxic disease protein. An initial starter culture was inoculated in 3 mL CSM-Glucose media and incubated overnight in a 30° C. shaker incubator (225 rpm). Saturated morning cultures were then diluted 1:20 in fresh CSM-Raffinose media and grown for 6 h to an OD600 (optical density) of ˜0.4-0.8 at 30° C. with shaking.
Compound administration was performed in two separate steps. First, 15 μL of CSM-Galactose (induces expression of toxic protein) was dispensed into clear 384 well assay plates using a MULTIDROP™ Combi reagent dispenser. […] The cultures described above were then diluted to a 2× concentration (0.03 and 0.08 for alpha-synuclein and ApoE, final ODsoo of 0.015 and 0.04) in CSM-Galactose. For wild-type and Ole1/SCD1/SCD5 plasmid-containing strains, the 2× cell density was 0.02. […] For 96-well assays (FIGS. 1A and 1B), compound dilutions in DMSO were generated in 96 well plates and 1 μL was manually pipetted into 96 well clear bottom assay plates.
For experiments using a plasmid-borne copy of Ole1, SCD1, or SCD5 (FIGS. 3B, 6, and 7), media lacking uracil (SX-Ura, where X is glucose, raffinose, or galactose), was used for all steps of the compound profiling protocol to ensure its maintenance throughout the assay.
After yeast delivery, assay plates were incubated under humidified conditions at 30° C. for 24 to 40 h. ApoE4 rescue experiments were stopped at 24 h, aSyn experiments at 40 h, Ole1 at 24 h, and SCD1/SCD5 at 40 h. The growth of yeast was monitored by reading the ODsoo of each well using a microplate reader (Perkin Elmer EnVision™).

Compound	IC50 (SCD5) [µM]	SCD5 % Max Inhibition (SCD5)	IC50 (SCD1) [µM]	SCD1 % Max Inhibition (SCD1)	IC50 (Ole1) [µM]	OLE1 % Max Inhibition (Ole1)	half-maximal inhibitory concentration (IC50) (SCD5; SCD5 humanized strain, FIG. 6)	growth of yeast expressing OLE1 in presence of inhibitor (Ole1; FIG. 6)
Cc1nn(C)c2cc(-c3nsc(C4CCN(C(=O)C5CC(=O)N(c6ccccc6)C5)CC4)n3)ccc12 (stereo not shown) [Compound 251]	> 45	20.59%	> 45	83.15%	> 45	7.80%		
Cc1nn(C)c2cc(-c3noc(C4CCN(C(=O)CNC(=O)c5cc(Cl)ccc5C(F)(F)F)CC4)n3)ccc12 [Compound 328]	> 45	80.5%		86.6%	> 45	21.9%		
CCOc1ccc(-c2noc(C3CCN(C(=O)CN4Cc5cccc(F)c5C4=O)CC3)n2)cc1OC [Compound 178]	> 45	85.67%	> 45	114.07%	> 45	7.39%		
Cc1nn(C)c2cc(-c3noc(C4CCN(C(=O)CNC(=O)c5ccsn5)CC4)n3)ccc12 [Compound 226]	> 45	0.69%	> 45	33.20%	> 45	1.24%		
O=C(c1ccccc1)N1CCC(c2nc(N3CC4(COC4)C3)no2)CC1 [Compound 334]	> 45	66.7%		49.3%	> 45	84.4%		
Cc1nn(C)c2cc(-c3noc(C4CCN(C(=O)CNC(=O)c5ccccc5)CC4(F)F)n3)ccc12 (stereo not shown) [Compound 244]	> 45	2.85% and 2.47%	> 45	15.54% and 8.51%	> 45	3.34% and 1.29%		
COC(=O)N1CCC(c2nc(-c3ccc4c(C)nn(C)c4c3)no2)CC1 [Compound 273]	> 45	55.0%		67.9%	> 45	78.7%		
Cc1nn(C)c2cc(-c3noc(C4CCN(C(=O)[C@H](NC(=O)c5ccccc5)C5CC5)CC4)n3)ccc12 [Compound 191]	> 45	6.72%	> 45	81.79%	> 45	89.31%		
CC(C)c1ccc(C(=O)N2CCC(c3nc(-c4ccc5cnn(C)c5c4)no3)CC2)cc1 [Compound 204]	> 45	0.25% and 2.95%	> 45	30.36% and 21.99%	> 45	79.30% and 50.38%		
O=C(C1CC(=O)N(c2cccc(Cl)c2)C1)N1CCC(c2nc(N3CCOCC3)no2)CC1 (stereo not shown) [Compound 323]	> 45	73.5%	> 45	76.1%	> 45	89.1%		
CC(C)n1ncc2ccc(-c3noc(C4CCN(C(=O)c5ccccc5Cl)CC4)n3)cc21 [Compound 345]	> 45	2.2%			> 45	6.63%		
CC(C)n1ncc2ccc(-c3noc(C4CCN(C(=O)c5cccc(F)c5)CC4)n3)cc21 [Compound 344]	> 45	1.1%			> 45	7.14%		
O=C(C1CC(=O)N(c2cccc(Cl)c2)C1)N1CCC(c2nc(Cl)no2)CC1 (stereo not shown) [Compound 348]		59.2%			> 45	74.78%		
CC(C)c1ccc(C(=O)N2CCC(c3nc(Cl)no3)CC2)cc1 [Compound 352]	> 45	44.5%			> 45	71.57%		
N#Cc1cccc(N2CC(C(=O)N3CCC(c4nc(Cl)no4)CC3)CC2=O)c1 (stereo not shown) [Compound 350]		56.3%			> 45	71.00%		
O=C(c1ccccc1)N1CCC(c2nc(Cl)no2)CC1 [Compound 351]		57.3%			> 45	68.60%		
CC(C)n1ncc2ccc(-c3noc(C4CCN(C(=O)c5ccccc5)CC4)n3)cc21 [Compound 346]	> 45	1.1%			> 45	12.12%		
CC(C)n1ncc2ccc(-c3noc(N4CCN(C(=O)OC(C)(C)C)CC4)n3)cc21 [Compound 349]	> 45	0.2%			> 45	84.00%		
O=C(O)Cn1nnc(-c2cc(N3CCC(Oc4cc(F)ccc4Br)CC3)no2)n1 [MK-8245, reference compound]							low nanomolar	resistant
